From patent publication US20240374763A1, “DIAGNOSIS AND MONITORING USING EXTRADOMAIN-B FIBRONECTIN TARGETED PROBES” (Case Western Reserve University, priority 2020, published 2024) come the findings set out here.

Assay [1] deals with EDB-FN. The assay is described as follows: MK2206-HCl treatment, qRT-PCR of EDB-FN. It is filed as cell-based. Conditions: MDA-MB-468-DR cells, 4 μM MK2206-HCl for 2 days, vs DMSO-treated controls. As for the experimental part: (§1) The invasive TGF-β-treated and drug-resistant MCF7 and MDA-MB-468 populations were treated with MK2206-HCl, a pan-AKT inhibitor, purchased from SelleckChem (Boston, MA). For this treatment, 8×10^5 cells were plated on 6-well plates. After 24 h of attachment, the cells were treated with MK2206-HCl for 2 days (2 μM dose for MCF7 cells and 4 μM dose for MDA-MB-468 cells). Cells treated with equivalent volume of DMSO were used as controls. After treatment, the cells were counted and an equal number of cells was plated on Matrigel and in transwell inserts for the invasion and 3D growth assays, as described in the relevant sections. The treated and non-treated cells were similarly counted and harvested for protein and RNA extraction for western blotting and qRT-PCR, respectively.
Total RNA was extracted from cells and tissues using the RNeasy Plus Mini Kit (Qiagen, Germantown, MD), according to manufacturer's instructions. RNA concentration was determined and 1 μg of RNA was used to set up reverse transcription using the miScript II RT Kit (Qiagen) and qPCR was performed using the SyBr Green PCR Master Mix (Applied Biosystems, CA). Gene expression was analyzed by the 2-ΔΔCt method with 18S or R-actin expression as the control.
(Real-time PCR tracks product formation cycle by cycle.)

Assay [2] relates to phospho-AKT (T308 and S473). As to the kind of experiment: MK2206-HCl treatment, western blot of phospho-AKT. It is filed as cell-based. Conditions: invasive cell derivatives; 2 μM (MCF7) or 4 μM (MDA-MB-468) for 2 days. The procedure:
as §1, with “respectively. Total cellular protein was extracted as previously described. […] et al., (2019) Bioconjug Chem 30, 907-919. Protein concentration was determined by Lowry assay and equal concentration of protein extracts (40 μg) was loaded on SDS-PAGE gels, transferred onto nitrocellulose membrane and immunoblotted with primary antibodies overnight. Anti-EDB-FN antibody (G4 clone) was used at 1:1000 dilution. […]” for “respectively.”
(In general: A western blot detects proteins with antibodies after separation by electrophoresis.)

Assay [3] concerns DLD1-DR tumors. The assay is described as follows: MK2206-HCl therapy of DLD1-DR tumor-bearing mice, tumor volume. Particulars: for average tumor volume: treated group. It is filed as in vivo. As for the experimental part:
For therapeutic monitoring, 3-4×10^6 DLD1-DR cells suspended in Matrigel-PBS mixture (1:1) were subcutaneously injected in the left flanks of 10 nude mice (100 μL per mouse, mice labeled TM1-TM10). Tumor volumes were monitored and measured once a week using a Vernier caliper. When the average tumor volumes reached 100 mm^3, mice were randomized into 2 groups of 5: vehicle (mice #TM1, TM3, TM4, TM5, & TM10) and treated (mice #TM2, TM6, TM7, TM8, & TM9). Once a week, mice in the treated group received MK2206-HCl (100 mg/kg) and those in the vehicle group were injected with equivalent volume of DMSO, as described previously. Smith, J. A., L. J. Stallons, and R. G. Schnellmann, Am J Physiol Renal Physiol, 2014. 307(4): p. F435-44. After 3 weeks of treatment, tumor volumes increased over 1000 mm^3 and the experiment was terminated. The animals were then euthanized, and the tumors were harvested for post-mortem histology and IHC. Tumor volumes were calculated as [(Width)2×Length]/2.

Assay [4] concerns TGF-β-treated and drug-resistant MCF7 and MDA-MB-468 cells. The assay is described as follows: MK2206-HCl treatment, transwell invasion assay. Type of assay: cell-based. Particulars: TGFβ-treated and drug-resistant cell derivatives; 2 μM (MCF7) or 4 μM (MDA-MB-468) for 2 days. The procedure: as §1
For the invasion assay, breast cancer cells were starved in serum-depleted media overnight. The next day, 1-2×10^5 cells were plated in transwell inserts (VWR, Radnor, PA) coated with 0.3 mg/mL Corning™ Matrigel™ Membrane Matrix (Corning, NY). After 1-2 days, the inserts were swabbed with Q-tips to remove the plated cells. The invading cells on the bottom of the inserts were fixed with 4% paraformaldehyde followed by staining with 0.1% crystal violet for 20 min. Excess stain was washed under tap water and images of the purple migrated cells were taken using the Moticam T2 camera with 10× objective lens.

Assay [5] concerns the target T1, EDB-FN (Homo sapiens, UniProt P02751). The assay is described as follows: Peptide binding study of OSCC spheroids with ZD2-Cy5.5. Type of assay: cell-based. Particulars: ZD2-Cy5.5 125 nM, 15 minutes, ratio to Hoechst. As for the experimental part:
Coverslip plates (4-well, Ibidi GmbH, Martinsried, Germany) were coated with Cultrex Basement Membrane Matrix (350 μL, Trevigen, Gaithersburg, MA, USA). For spheroid formation, 2×10^5 OSCC cells were seeded into prepared wells, incubated for 2 days, and photographed with the Moticam T2 camera (Motic, Hong Kong, China). For peptide binding, 1×10^5 cells were seeded into prepared wells and incubated for 2 days. Spheroids were stained with ZD2-Cy5.5 (125 nM), synthesized as previously described, and Hoechst (1:2000 dilution) (Invitrogen, Carlsbad, CA, USA) dyes for 15 minutes, washed 3× with DPBS (Thermo Fisher Scientific), and imaged with confocal laser scanning microscopy using the Olympus FV1000 system (Olympus Life Science, Tokyo, Japan).
Confocal fluorescence images were analyzed using FIJI. For quantification, images were thresholded to generate ROIs of both stains. For spheroid size, the average size of Hoechst ROIs was calculated. For staining intensity, the average signal intensities of ZD2-Cy5.5 and Hoechst ROIs were calculated, along with the ratio between the average intensities.

In assay [6] the test system is EDB-FN. The assay is described as follows: ZD2-Cy5.5 staining of frozen tissue sections, BC-1 blocking experiment. Particulars: PaCa xenograft tissue sections, excess BC1 antibody. As for the experimental part:
For assessment of binding specificity of ZD2 peptide, flash frozen samples of tumor and normal tissues were collected from the euthanized tumor bearing mice and embedded in optimal cutting temperature media. The embedded samples were then immersed in liquid nitrogen for 5 minutes and transferred to −80° C. for storage before cryosectioning. Tissue sections were blocked for 1 hr in PBS containing 0.05% Tween-20 and 10% normal goat serum (Gibco, Gaithersburg, MD) and then stained with BC-1 primary monoclonal antibody (1:400) or ZD2-Cy5.5 (500 nM) at 4° C. overnight or room temperature incubation for 2.5 hr, respectively, and then washed with PBS-T buffer. Secondary Alexa Fluor 594 anti-rabbit was incubated with the BC-1 treated sections for 1 hour at room temperature (1:1000). For the blocking experiment, the tissue sections were first incubated with an excess of BC1 antibody at 4° C. overnight, then washed three times with PBS-T. The sections were then incubated with ZD2-Cy5.5 at room temperature incubation for 2.5 hr. The stained sections were washed with PBS-T buffer and images were acquired on an Olympus FV1000 (Waltham, MA) confocal microscope using pre-programmed emission and excitation filters for Cy5.5 (excitation: 635 nm; emission: 693 nm) and DAPI (excitation: 405 nm; emission: 461 nm), using a 10× objective lens.

Assay [7] has as its target T1, EDB-FN. The assay is described as follows: ZD2-Cy5.5 staining of human tissue. Conditions: 500 nM. Also on record: from tissue; host or cells: deparaffinized sections of human pancreatic cancer, PanIN and normal pancreas. As for the experimental part: Tissue sections from PaCa patients (Case Comprehensive Cancer Center, Cleveland, OH) were deparaffinized with xylene, ethanol, and washed with water. Blocking was performed with 10% goat serum (Invitrogen, Carlsbad, CA) in PBS with 0.1% Tween 20 (PBS-T) for 30 minutes and incubated with 500 nM ZD2-Cy5.5 in PBS-T for 1 hour at 37° C. Following three washes with PBS-T, the sections were mounted using Fluoroshield mounting medium (Abcam, Cambridge, UK). Images were acquired on a FV1000 (Olympus, Waltham, MA) confocal microscope using pre-programmed emission and excitation filters for Cy5.5 (excitation: 635 nm; emission: 693 nm) and DAPI (excitation: 405 nm; emission: 461 nm), using a 10× objective lens. All tissue samples were imaged at the same laser power and sensor gain. Images were generated from single-channel grayscale images using FIJI software.

Where a name gives a salt, the structure may show the parent alone. No end group written: not given here.

T1 sequence (P02751 32-2267 isoform P02751-13 limits assumed): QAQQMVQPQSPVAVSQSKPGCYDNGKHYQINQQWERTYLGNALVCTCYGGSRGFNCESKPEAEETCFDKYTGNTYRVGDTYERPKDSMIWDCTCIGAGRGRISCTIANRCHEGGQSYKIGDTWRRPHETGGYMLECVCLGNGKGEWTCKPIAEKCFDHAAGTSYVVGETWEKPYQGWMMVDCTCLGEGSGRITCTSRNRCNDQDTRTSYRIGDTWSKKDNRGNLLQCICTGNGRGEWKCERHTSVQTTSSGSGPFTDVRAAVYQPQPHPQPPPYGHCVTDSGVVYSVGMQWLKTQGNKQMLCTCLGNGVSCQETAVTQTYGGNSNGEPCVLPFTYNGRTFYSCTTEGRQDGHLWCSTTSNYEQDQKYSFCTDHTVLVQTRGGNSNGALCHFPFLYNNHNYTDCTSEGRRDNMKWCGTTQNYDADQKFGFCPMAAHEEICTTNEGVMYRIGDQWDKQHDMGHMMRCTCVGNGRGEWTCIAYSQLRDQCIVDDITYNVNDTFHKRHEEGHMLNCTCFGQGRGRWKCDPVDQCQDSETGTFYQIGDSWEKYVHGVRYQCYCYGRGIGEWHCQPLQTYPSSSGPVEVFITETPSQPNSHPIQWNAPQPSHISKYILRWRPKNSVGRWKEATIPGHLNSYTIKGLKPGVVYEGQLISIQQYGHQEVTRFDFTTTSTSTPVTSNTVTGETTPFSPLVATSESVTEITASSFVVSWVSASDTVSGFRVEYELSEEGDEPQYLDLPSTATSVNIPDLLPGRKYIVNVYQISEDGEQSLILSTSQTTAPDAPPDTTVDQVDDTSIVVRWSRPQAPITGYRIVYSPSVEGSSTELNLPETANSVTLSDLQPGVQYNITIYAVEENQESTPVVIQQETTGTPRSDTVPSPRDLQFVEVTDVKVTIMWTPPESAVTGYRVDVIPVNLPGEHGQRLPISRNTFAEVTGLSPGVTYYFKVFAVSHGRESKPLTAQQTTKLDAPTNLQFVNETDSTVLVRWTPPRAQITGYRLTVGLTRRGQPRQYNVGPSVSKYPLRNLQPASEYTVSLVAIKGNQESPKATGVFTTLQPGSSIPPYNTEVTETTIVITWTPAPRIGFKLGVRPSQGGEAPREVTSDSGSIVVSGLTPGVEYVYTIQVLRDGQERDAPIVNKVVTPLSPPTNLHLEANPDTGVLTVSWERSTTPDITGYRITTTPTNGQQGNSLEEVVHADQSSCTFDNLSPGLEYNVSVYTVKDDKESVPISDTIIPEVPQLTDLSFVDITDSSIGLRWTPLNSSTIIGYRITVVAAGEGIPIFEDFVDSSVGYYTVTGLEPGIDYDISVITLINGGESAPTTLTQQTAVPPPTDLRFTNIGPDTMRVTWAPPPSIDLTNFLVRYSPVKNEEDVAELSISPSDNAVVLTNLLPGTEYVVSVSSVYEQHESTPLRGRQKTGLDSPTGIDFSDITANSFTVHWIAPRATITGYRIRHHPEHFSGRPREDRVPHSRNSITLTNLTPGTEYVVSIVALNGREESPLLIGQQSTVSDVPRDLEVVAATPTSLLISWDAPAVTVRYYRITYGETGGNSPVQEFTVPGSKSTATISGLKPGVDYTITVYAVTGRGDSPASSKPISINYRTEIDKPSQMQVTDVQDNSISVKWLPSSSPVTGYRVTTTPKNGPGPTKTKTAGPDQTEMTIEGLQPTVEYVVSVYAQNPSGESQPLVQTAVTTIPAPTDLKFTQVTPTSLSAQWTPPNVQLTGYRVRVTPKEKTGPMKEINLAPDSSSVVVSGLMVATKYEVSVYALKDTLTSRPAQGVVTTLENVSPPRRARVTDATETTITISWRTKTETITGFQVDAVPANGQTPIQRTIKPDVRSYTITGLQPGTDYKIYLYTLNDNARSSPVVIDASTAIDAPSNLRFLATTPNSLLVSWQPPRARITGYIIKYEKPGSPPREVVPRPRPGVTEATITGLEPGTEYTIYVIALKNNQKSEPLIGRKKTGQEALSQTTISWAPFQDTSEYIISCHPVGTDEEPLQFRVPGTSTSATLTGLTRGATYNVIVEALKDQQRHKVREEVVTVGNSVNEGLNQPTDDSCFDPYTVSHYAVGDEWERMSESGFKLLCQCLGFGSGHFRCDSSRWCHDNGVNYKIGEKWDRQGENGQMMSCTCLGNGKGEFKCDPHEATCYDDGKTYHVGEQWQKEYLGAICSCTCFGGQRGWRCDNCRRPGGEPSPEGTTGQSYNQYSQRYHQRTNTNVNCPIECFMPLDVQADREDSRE

For the compound `NC1(c2ccc(-c3nc4ccn5c(=O)[nH]nc5c4cc3-c3ccccc3)cc2)CCC1` [MK2206-HCl], in assay [1], the “decrease in EDB-FN mRNA” value is 10-15%. Besides, in assay [2], the “inhibition of phospho-AKT (T308 and S473)” value was “robust inhibition”. In addition, the “tumor response to therapy” value in assay [3] (DLD1-DR tumors, MK2206-HCl 100 mg/kg once a week for 3 weeks) is listed as “did not respond to therapy”. Also, the average tumor volume in assay [3] (week 1 (baseline), MK2206-HCl 100 mg/kg once a week) was determined as 110.5±11.97 mm^3; in assay [3] (week 4, after 3 weeks of MK2206-HCl 100 mg/kg once a week), 1249.7±199.3 mm^3. In addition, in assay [4], the invasive potential entry was “reduced the invasive potential”.
For the compound “ZD2-Cy5.5: EDB-FN-specific fluorescent peptide probe, ZD2 peptide labeled with Cy5.5 (TVRTSAD; also: labeled with Cy5.5, site and linker not given here)”, in assay [5], the “staining intensity of SCC4 relative to HSC3 spheroids” value is listed as “approximately 2 fold”. In assay [6], the “ZD2-Cy5.5 binding in the presence of the anti-EDB-FN antibody” value was “blocked”. Moreover, the ZD2-Cy5.5 binding result in assay [7] (human PaCa tissue) is “high”; in assay [7] (normal pancreatic tissue) it was “low”; in assay [7] (precancerous PanIN tissue), “moderate”.
